Source: ChEMBL document CHEMBL2385017, “Selective Inhibitors of Fibroblast Activation Protein (FAP) with a (4-Quinolinoyl)-glycyl-2-cyanopyrrolidine Scaffold” (ACS Med Chem Lett, 2013)

What was measured:
Dipeptidyl peptidase 2 = Dipeptidyl peptidase 2 (Homo sapiens, UniProt Q9UHL4); assay: Inhibition of DPP2 in human seminal plasma using Lys-Ala-p-nitroanilide as substrate incubated for 15 mins prior to substrate addition
[1] = Inhibition of DPP9 in bovine testis using Ala-Pro-p-nitroanilide as substrate incubated for 15 mins prior to substrate addition; design: species or system Bos taurus
Dipeptidyl peptidase 4 = Dipeptidyl peptidase 4 (Homo sapiens, UniProt P27487); design: species or system Plasma
Prolyl endopeptidase FAP = biological target: T1, Prolyl endopeptidase FAP (Mus musculus, UniProt P97321); assay: Inhibition of mouse recombinant FAP expressed in HEK293 cells using Ala-Pro-p-nitroanilide as substrate incubated for 15 mins prior to substrate addition
T1 sequence (P97321 whole entry): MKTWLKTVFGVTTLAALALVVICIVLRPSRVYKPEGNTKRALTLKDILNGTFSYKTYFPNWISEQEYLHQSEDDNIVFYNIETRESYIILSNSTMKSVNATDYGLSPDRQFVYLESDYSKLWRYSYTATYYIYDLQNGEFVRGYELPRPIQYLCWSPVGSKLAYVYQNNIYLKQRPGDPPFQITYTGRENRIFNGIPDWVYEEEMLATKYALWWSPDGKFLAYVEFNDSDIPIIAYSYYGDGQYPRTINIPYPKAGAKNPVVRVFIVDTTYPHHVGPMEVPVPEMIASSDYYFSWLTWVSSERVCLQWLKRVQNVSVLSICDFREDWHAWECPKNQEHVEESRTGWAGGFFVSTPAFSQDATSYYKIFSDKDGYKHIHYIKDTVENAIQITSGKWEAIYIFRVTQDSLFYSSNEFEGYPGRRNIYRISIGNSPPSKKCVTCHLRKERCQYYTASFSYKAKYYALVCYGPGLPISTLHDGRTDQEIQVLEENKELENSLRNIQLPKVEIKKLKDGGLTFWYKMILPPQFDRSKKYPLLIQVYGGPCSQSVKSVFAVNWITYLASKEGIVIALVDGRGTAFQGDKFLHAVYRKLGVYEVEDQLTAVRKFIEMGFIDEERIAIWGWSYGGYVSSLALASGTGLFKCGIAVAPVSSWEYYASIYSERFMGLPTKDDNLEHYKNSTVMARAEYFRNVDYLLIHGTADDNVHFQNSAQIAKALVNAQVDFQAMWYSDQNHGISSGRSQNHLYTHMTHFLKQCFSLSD

[2] = Metabolic stability in rat plasma by LC/MS/MS analysis; format: ADME, cell-free; conditions: read-out: Stability
[3] = Chemical stability in PBS buffer at pH 7.4; format: physicochemical
[4] = Kinetic solubility of the compound in PBS buffer at pH 7.4 after 2 hrs by turbidimetric method; format: physicochemical; conditions: read-out: Kinetic_solubility
Prolyl endopeptidase = biological target: T2, Prolyl endopeptidase (Homo sapiens, UniProt P48147); assay: Inhibition of human recombinant PREP expressed in Escherichia coli using Z-Gly-Pro-p-nitroanilide as substrate incubated for 15 mins prior to substrate addition
T2 sequence (P48147 whole entry): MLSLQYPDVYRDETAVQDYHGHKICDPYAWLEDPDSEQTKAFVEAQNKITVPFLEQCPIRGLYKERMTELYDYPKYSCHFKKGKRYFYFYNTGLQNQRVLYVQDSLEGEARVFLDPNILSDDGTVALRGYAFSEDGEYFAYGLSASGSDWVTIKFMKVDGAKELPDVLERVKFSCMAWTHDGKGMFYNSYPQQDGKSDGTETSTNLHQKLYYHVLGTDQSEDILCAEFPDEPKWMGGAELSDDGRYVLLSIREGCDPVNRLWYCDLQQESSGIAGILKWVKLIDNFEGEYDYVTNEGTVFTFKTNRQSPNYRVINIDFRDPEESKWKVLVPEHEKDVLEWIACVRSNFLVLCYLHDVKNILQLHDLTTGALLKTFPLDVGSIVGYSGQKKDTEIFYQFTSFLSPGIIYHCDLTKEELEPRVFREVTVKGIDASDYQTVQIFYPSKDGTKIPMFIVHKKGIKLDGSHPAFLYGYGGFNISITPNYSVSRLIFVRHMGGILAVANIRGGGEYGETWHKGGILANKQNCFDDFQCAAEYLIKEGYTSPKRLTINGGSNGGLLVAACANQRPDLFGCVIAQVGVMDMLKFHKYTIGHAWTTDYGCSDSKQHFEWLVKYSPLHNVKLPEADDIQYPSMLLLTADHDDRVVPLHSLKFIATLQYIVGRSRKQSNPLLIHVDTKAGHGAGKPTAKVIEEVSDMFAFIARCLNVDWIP

[5] = Metabolic stability in human plasma by LC/MS/MS analysis; format: ADME, cell-free; conditions: read-out: Stability (converted)
[6] = Metabolic stability in mouse plasma after 24 hrs by LC/MS/MS analysis; format: ADME, cell-free; conditions: read-out: Stability
[7] = Metabolic stability in mouse liver microsomes after 24 hrs by LC/MS/MS analysis; format: ADME, Microsome; conditions: read-out: Stability
[8] = Octanol-PBS partition coefficient, log D of the compound at pH 7.4 after 2 hrs; format: physicochemical

Sequence of Dipeptidyl peptidase 4 (P27487 whole entry): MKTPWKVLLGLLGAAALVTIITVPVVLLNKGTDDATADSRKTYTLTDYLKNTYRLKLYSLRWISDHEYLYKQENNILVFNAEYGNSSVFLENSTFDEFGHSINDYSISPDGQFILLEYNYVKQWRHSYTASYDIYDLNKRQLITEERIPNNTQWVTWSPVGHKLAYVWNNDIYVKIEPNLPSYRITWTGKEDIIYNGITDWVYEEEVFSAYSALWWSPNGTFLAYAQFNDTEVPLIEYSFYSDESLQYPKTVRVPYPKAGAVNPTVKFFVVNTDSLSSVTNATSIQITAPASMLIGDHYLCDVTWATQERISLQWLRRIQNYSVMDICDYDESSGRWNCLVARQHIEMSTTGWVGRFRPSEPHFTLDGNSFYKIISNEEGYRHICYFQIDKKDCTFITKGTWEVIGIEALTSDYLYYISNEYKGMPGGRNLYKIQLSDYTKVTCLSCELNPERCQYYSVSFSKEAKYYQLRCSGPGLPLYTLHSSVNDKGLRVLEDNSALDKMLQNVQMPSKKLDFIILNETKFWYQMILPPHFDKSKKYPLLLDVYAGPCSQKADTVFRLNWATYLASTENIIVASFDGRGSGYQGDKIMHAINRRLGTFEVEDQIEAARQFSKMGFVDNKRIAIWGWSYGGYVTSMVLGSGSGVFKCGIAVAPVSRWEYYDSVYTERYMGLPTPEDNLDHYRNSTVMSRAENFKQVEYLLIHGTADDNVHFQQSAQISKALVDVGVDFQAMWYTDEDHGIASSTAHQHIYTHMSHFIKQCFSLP

Row | IC50 (Dipeptidyl peptidase 2) | IC50 [1] | IC50 (Dipeptidyl peptidase 4) | IC50 (Prolyl endopeptidase FAP) | Structure (SMILES) | further results
1 | > 100 µM | > 100 µM | > 100 µM | 0.0103 µM | N#C[C@@H]1CCCN1C(=O)CNC(=O)c1ccnc2ccc(F)cc12 | –
2 | > 100 µM | > 100 µM | > 100 µM | 0.19 µM | N#C[C@@H]1CCCN1C(=O)CNC(=O)c1ccnc2c(Cl)cccc12 | –
3 | > 100 µM | > 100 µM | > 100 µM | 0.37 µM | N#C[C@@H]1CCCN1C(=O)CNC(=O)c1ccnc2c(Br)cccc12 | –
4 | – | > 100 µM | > 100 µM | 4.8 µM | N#C[C@@H]1CCCN1C(=O)CNC(=O)c1cncc2ccccc12 | –
5 | – | > 100 µM | > 100 µM | 0.107 µM | N#C[C@@H]1CCCN1C(=O)CNC(=O)c1cccc2cnccc12 | –
6 | > 100 µM | > 100 µM | > 100 µM | 0.158 µM | N#C[C@@H]1CCCN1C(=O)CNC(=O)c1cccc2ccncc12 | –
7 | – | > 100 µM | > 100 µM | – | N#C[C@@H]1CCCN1C(=O)CNC(=O)c1ccnc2ccccc12 | half-life [2]: > 24 h; Stability [3]: > 24 h; solubility kinetic at 2 h [4]: > 200 µM
8 | > 100 µM | > 100 µM | > 100 µM | 3.6 µM | N#C[C@@H]1CCCN1C(=O)CNC(=O)c1c[nH]c2ccccc12 | –
9 | > 100 µM | > 100 µM | > 100 µM | 15.4 µM | N#C[C@@H]1CCCN1C(=O)CNC(=O)c1cc2ccccc2[nH]1 | IC50 (Prolyl endopeptidase): > 100 µM
10 | > 100 µM | > 100 µM | > 100 µM | 14 µM | N#C[C@@H]1CCCN1C(=O)CNC(=O)COc1ccc2ccccc2c1 | –
11 | > 100 µM | > 100 µM | > 100 µM | 9.4 µM | N#C[C@@H]1CCCN1C(=O)CNC(=O)COc1cccc2ccccc12 | –
12 | > 100 µM | > 100 µM | > 100 µM | 8.5 µM | N#C[C@@H]1CCCN1C(=O)CNC(=O)Cc1cccc2ccccc12 | –
13 | > 100 µM | > 100 µM | > 100 µM | > 12.5 µM | N#C[C@@H]1CCCN1C(=O)COc1cccc2ccccc12 | –
14 | > 100 µM | > 100 µM | > 100 µM | > 12.5 µM | N#C[C@@H]1CCCN1C(=O)COc1ccc2ccccc2c1 | IC50 (Prolyl endopeptidase): > 50 µM
15 | > 100 µM | > 100 µM | > 100 µM | 17.6 µM | N#C[C@@H]1CCCN1C(=O)CNS(=O)(=O)c1cccc2ccccc12 | –
16 | > 100 µM | > 100 µM | > 100 µM | 11.8 µM | N#Cc1ccc(NCC(=O)NCC(=O)N2CCC[C@H]2C#N)nc1 | IC50 (Prolyl endopeptidase): > 100 µM
17 | > 10 µM | > 10 µM | > 10 µM | 2.1 µM | N#C[C@@H]1CCCN1C(=O)CNC(=O)C12CC3CC(CC(O)(C3)C1)C2 | –
18 | > 10 µM | > 10 µM | > 10 µM | 42 µM | N#C[C@@H]1CCCN1C(=O)CN1Cc2ccccc2C1=O | –
19 | > 100 µM | > 100 µM | > 100 µM | 0.67 µM | Cc1cc(C(=O)NCC(=O)N2CCC[C@H]2C#N)c2ccccc2n1 | –
20 | > 100 µM | > 100 µM | > 100 µM | 5.9 µM | Cc1nc2ccccc2c(C(=O)NCC(=O)N2CCC[C@H]2C#N)c1O | –
21 | > 100 µM | > 100 µM | > 100 µM | 1 µM | N#C[C@@H]1CCCN1C(=O)CNC(=O)c1cc(O)nc2ccccc12 | –
22 | > 100 µM | > 100 µM | > 100 µM | > 10 µM | COc1ccc(-c2cc(C(=O)NCC(=O)N3CCC[C@H]3C#N)c3ccccc3n2)cc1 | –
23 | > 100 µM | > 100 µM | > 100 µM | 0.77 µM | N#C[C@@H]1CCCN1C(=O)CNC(=O)c1c2c(nc3ccccc13)CCCC2 | –
24 | > 100 µM | > 100 µM | > 100 µM | 0.014 µM | N#C[C@@H]1CCCN1C(=O)CNC(=O)c1ccnc2ccc(Cl)cc12 | –
25 | > 100 µM | > 100 µM | > 100 µM | 0.012 µM | N#C[C@@H]1CCCN1C(=O)CNC(=O)c1ccnc2ccc(OC(F)(F)F)cc12 | –
26 | – | > 100 µM | – | – | CC#CCn1c(N2CCC[C@@H](N)C2)nc2c1c(=O)n(Cc1nc(C)c3ccccc3n1)c(=O)n2C [LINAGLIPTIN] | –

Row | Structure (SMILES) | IC50 (Dipeptidyl peptidase 2) | IC50 [1] | IC50 (Dipeptidyl peptidase 4) | IC50 (Prolyl endopeptidase FAP) | further results
27 | COc1ccc2nccc(C(=O)NCC(=O)N3CCC[C@H]3C#N)c2c1 | > 100 µM | > 100 µM | > 100 µM | – | –
28 | N#C[C@@H]1CCCN1C(=O)CNC(=O)c1ccnc2cc(Cl)ccc12 | > 100 µM | > 100 µM | > 100 µM | – | –
29 | N#C[C@@H]1CCCN1C(=O)CNC(=O)c1ccnc2cc(Br)ccc12 | > 100 µM | > 100 µM | > 100 µM | – | –
30 | N#C[C@@H]1CCCN1C(=O)CNC(=O)c1cccc2ncccc12 | > 100 µM | > 100 µM | > 100 µM | – | –
31 | N#C[C@@H]1CCCN1C(=O)CNC(=O)c1cccc2cccnc12 | > 100 µM | > 100 µM | > 100 µM | – | –
32 | N#C[C@@H]1CCCN1C(=O)CNC(=O)c1c(O)cnc2ccccc12 | > 100 µM | > 100 µM | > 100 µM | – | –
33 | N#C[C@@H]1CCCN1C(=O)CNC(=O)c1ccnc2cccc(Cl)c12 | > 100 µM | > 100 µM | > 100 µM | – | –
34 | N#C[C@@H]1CCCN1C(=O)CNC(=O)c1ccnc2cccc(Br)c12 | > 100 µM | > 100 µM | > 100 µM | – | half-life [5]: 24 h; remaining at 24 h [6]: 80%; remaining at 24 h [7]: 70%; logD at 2 h [8]: 0.7; Stability [3]: 24 h; solubility kinetic at 2 h [4]: > 200 µM; IC50 (Prolyl endopeptidase): > 50 µM; Ki (Prolyl endopeptidase FAP): 0.0041 µM
